In the NIST ThermoML archive (doi:10.1021/acs.jced.5b00971):

Details: Liquid; for thermal conductivity: Hot wire method; for viscosity: Capillary tube (Ostwald / Ubbelohde) method; for mass density: Pycnometric method

CCCCCCCCCC(=O)O [decanoic acid]
101.33 kPa
Details	mass density [kg/m3]	thermal conductivity [W/m/K]	viscosity [mPa·s]
308 K	–	0.154	–
322.1 K	878	–	4.75
327.4 K	–	0.15	–
332.1 K	871	–	3.8
348.8 K	–	0.146	–
352.1 K	855.3	–	2.55
368.3 K	843.1	–	1.94
373.9 K	–	0.14	–
388.3 K	827.3	–	1.45
398.3 K	–	0.135	–
408.2 K	812.2	–	1.1
421.9 K	–	0.13	–
427.2 K	797.2	–	0.88
428.2 K	796.4	–	0.87
442.2 K	784.9	–	0.75
447.3 K	–	0.125	–
457.2 K	772.9	–	0.64
472.2 K	761.9	–	0.56
473.4 K	–	0.119	–

CCCCCCCCCCCC(=O)O [dodecanoic acid]
101.33 kPa
Details	mass density [kg/m3]	thermal conductivity [W/m/K]	viscosity [mPa·s]
322.1 K	872.4	–	7.21
324.6 K	–	0.156	–
332.1 K	864.6	–	5.62
348.7 K	–	0.151	–
352.1 K	849.9	–	3.7
368.2 K	838.9	–	2.69
373.8 K	–	0.145	–
388.4 K	824.1	–	1.97
398.4 K	–	0.14	–
408.1 K	809.3	–	1.47
422 K	–	0.134	–
428.1 K	794.4	–	1.11
442.2 K	783.5	–	0.95
447.5 K	–	0.129	–
457.2 K	770.2	–	0.8
467.2 K	762	–	0.72
472.7 K	–	0.123	–

CCCCCCC(=O)O [heptanoic acid]
101.33 kPa
Details	mass density [kg/m3]	thermal conductivity [W/m/K]	viscosity [mPa·s]
290.3 K	920.6	–	4.63
296 K	–	0.144	–
308 K	905.7	–	3.06
314.4 K	–	0.14	–
323.1 K	893	–	2.3
332.4 K	–	0.137	–
338.1 K	880.4	–	1.74
352.6 K	–	0.133	–
353.1 K	867.8	–	1.39
367.1 K	855.4	–	1.13
372.2 K	–	0.13	–
382 K	–	0.127	–
383.2 K	842.3	–	0.94
391.9 K	–	0.124	–
397.9 K	829.4	–	0.79
412.4 K	–	0.121	–
412.9 K	816.6	–	0.68
427.7 K	803.4	–	0.59
441.7 K	–	0.116	–
471.4 K	–	0.11	–

CCCCCC(=O)O [hexanoic acid]
101.33 kPa
Details	mass density [kg/m3]	thermal conductivity [W/m/K]	viscosity [mPa·s]
294.5 K	926	–	–
294.6 K	–	–	3.07
296.9 K	–	0.143	–
312.1 K	910.5	–	2.15
325.7 K	–	0.138	–
332.1 K	893.1	–	1.52
347.4 K	–	0.134	–
352.1 K	875.8	–	1.14
368.1 K	861.7	–	0.94
374.7 K	–	0.128	–
388.4 K	843.5	–	0.73
398.1 K	–	0.124	–
408.3 K	825.3	–	0.6
422.3 K	–	0.12	–
428.3 K	806.5	–	0.49
445.6 K	–	0.116	–
471.2 K	–	0.113	–

CCCCCCCCC(=O)O [nonanoic acid]
101.33 kPa
Details	mass density [kg/m3]	thermal conductivity [W/m/K]	viscosity [mPa·s]
290.3 K	906	–	–
292.3 K	–	–	8.2
296.3 K	–	0.15	–
308 K	893.8	–	5.25
322.6 K	–	0.144	–
323.1 K	881.9	–	3.66
338.1 K	870.1	–	2.7
352.9 K	–	0.139	–
353.1 K	858.4	–	2.07
368 K	846.7	–	1.63
381.3 K	–	0.133	–
383.1 K	834.1	–	–
383.3 K	–	–	1.31
398.1 K	822.3	–	1.08
412.2 K	–	0.126	–
413 K	810.3	–	0.9
427.9 K	798	–	0.76
441.4 K	–	0.121	–
471.6 K	–	0.115	–

CCCCCCCC(=O)O [octanoic acid]
101.33 kPa
Details	mass density [kg/m3]	thermal conductivity [W/m/K]	viscosity [mPa·s]
290.3 K	910.3	–	–
293.3 K	–	–	5.86
297.2 K	–	0.147	–
308 K	898.2	–	3.98
322.3 K	–	0.142	–
323.1 K	885.9	–	2.88
338.1 K	873.8	–	2.17
352.8 K	–	0.136	–
353.1 K	861.8	–	1.69
367.8 K	849.7	–	1.36
383.1 K	837.2	–	1.11
387.6 K	–	0.13	–
398.1 K	824.6	–	0.92
411.3 K	–	0.124	–
412.9 K	812.3	–	0.78
427.7 K	799.2	–	0.67
442 K	–	0.118	–
471.7 K	–	0.112	–

CCCCC(=O)O [pentanoic acid]
Details	mass density [kg/m3]	thermal conductivity [W/m/K]	viscosity [mPa·s]
293.4 K	939.7	–	2.19
296.1 K	–	0.141	–
312.1 K	922.3	–	1.56
324.1 K	–	0.136	–
332.1 K	904.1	–	1.17
348.6 K	–	0.131	–
352.2 K	885.4	–	0.89
368.1 K	870.6	–	0.75
374 K	–	0.126	–
388.4 K	851	–	0.6
398 K	–	0.122	–
408.3 K	831.9	–	0.5
422.4 K	–	0.118	–
428.2 K	812.1	–	0.41
446.4 K	–	0.115	–
471.3 K	–	0.111	–

CCCCCCCCCCCCCC(=O)O [tetradecanoic acid]
101.33 kPa
Details	mass density [kg/m3]	thermal conductivity [W/m/K]	viscosity [mPa·s]
332.1 K	861.3	–	7.77
334.4 K	–	0.158	–
349 K	–	0.155	–
352.1 K	846.9	–	4.88
368.2 K	835.6	–	3.53
374.1 K	–	0.149	–
388.2 K	821.4	–	2.48
397.7 K	–	0.144	–
408.2 K	806.7	–	1.79
422.3 K	–	0.139	–
427.9 K	791.7	–	1.35
442.2 K	–	–	1.13
443.2 K	780.9	–	–
447.3 K	–	0.133	–
457.2 K	–	–	0.95
458.2 K	769.3	–	–
471.9 K	–	0.127	–
472.2 K	–	–	0.81
473.2 K	758	–	–
